In ChEMBL document CHEMBL4414671, “Antinociceptive Grayanane Diterpenoids from the Leaves of Pieris japonica” (2019):

Legend:
Assay type in all cases: functional
Mus musculus [1] = assay: Antinociceptive activity in mouse as reduction in acetic acid-induced writhes at 0.04 mg/kg,ip relative to control
Mus musculus [2] = assay: Antinociceptive activity in mouse as reduction in acetic acid-induced writhes at 5 mg/kg, ip relative to control
Mus musculus [3] = assay: Antinociceptive activity in mouse as reduction in acetic acid-induced writhes at 0.2 to 1 mg/kg, ip relative to control
Mus musculus [4] = assay: Antinociceptive activity in mouse as reduction in acetic acid-induced writhes at 1 mg/kg, ip relative to control
Mus musculus [5] = assay: Antinociceptive activity in mouse as reduction in acetic acid-induced writhes at 0.2 mg/kg, ip relative to control

Compound	inhibition in vivo at 5 mg/kg (Mus musculus [2]) [%]	further results
CC1(C)[C@@H](O)[C@H](O)[C@H]2[C@](C)(O)[C@@H]3CC[C@@H]4[C@@H](O)[C@@]3(C[C@@H](O)[C@@]21O)C[C@@]4(C)O		inhibition in vivo at 0.04 mg/kg (Mus musculus [1]): 88.7%
C=C1[C@@H]2CC[C@@H]3C[C@@]2(C[C@@H](O)[C@@]2(O)[C@@H]1[C@H](O)[C@H](O)C2(C)C)C[C@@]3(C)O	> 50	
CC1=C2CC[C@@H]3[C@@H](O)[C@@]2(C[C@@H](O)[C@@]2(O)[C@H]1[C@@H](O)[C@H](O)C2(C)C)C[C@@]3(C)O		inhibition (INH) (Mus musculus [3]): >50%
C=C1[C@@H]2[C@@H](OC)[C@H](O)C(C)(C)[C@@]2(O)[C@H](O)C[C@]23C[C@@](C)(O)[C@H](CC[C@@H]12)[C@H]3O	> 50	
CO[C@H]1[C@H](O)C(C)(C)[C@@]2(O)[C@H](O)C[C@]34C[C@@](C)(O)[C@H](CC[C@H]3[C@@](C)(O)[C@H]12)[C@H]4O		inhibition in vivo at 0.04 mg/kg (Mus musculus [1]): 59.1%
C=C1[C@@H]2C[C@@H](O)[C@@H]3C[C@@]2(C[C@@H](O)[C@@]2(O)[C@H]1C[C@H](O)C2(C)C)C[C@@]3(C)O	> 50	
C=C1[C@@H]2CC[C@@H]3C[C@@]2(C[C@@H](O)[C@@]2(O)[C@H]1C[C@H](O)C2(C)C)C[C@@]3(C)OC	> 50	
C=C1[C@@H]2[C@@H](O)[C@H](O)C(C)(C)[C@@]2(O)[C@H](O)C[C@]23C=C(C)[C@H](CC[C@@H]12)[C@H]3O	> 50	
C=C1[C@@H]2CC[C@@H]3C[C@]2(C=C3CO)C[C@@H](O)[C@@]2(O)[C@H]1C[C@H](O)C2(C)C		inhibition in vivo at 0.04 mg/kg (Mus musculus [1]): 56.3%
CC1=C2CC[C@@H]3C[C@@]2(C[C@@H](O)[C@@]2(O)[C@H]1C[C@H](O)C2(C)C)C[C@@]3(C)O	> 50	
C=C1[C@@H]2[C@@H](OC)[C@H](O)C(C)(C)[C@@]2(O)[C@H](O)C[C@]23C[C@@](C)(O)[C@H](CC[C@@H]12)[C@H]3OC(=O)C(C)O (stereo partly specified)	> 50	
CC1(C)[C@@H](O)C[C@@H]2[C@@](C)(O)[C@@H]3CC[C@]4(O)C[C@@]3(C[C@@H](O)[C@@]21O)C[C@@]4(C)O	> 50	
C=C1[C@@H]2CC[C@@H]3C[C@@]2(C[C@@H](O)[C@@]2(O)[C@H]1CC(=O)C2(C)C)C[C@@]3(C)O	87.3	inhibition in vivo at 1 mg/kg (Mus musculus [4]): 76.3%; inhibition in vivo at 0.2 mg/kg (Mus musculus [5]): 59.1%
C=C1[C@@H]2[C@@H](O)[C@H](O)C(C)(C)[C@@]2(O)[C@H](O)C[C@]23C[C@@](C)(O)[C@H](CC[C@@H]12)[C@H]3OC(=O)CC	> 50	
C=C1C2=C([C@H](O)C[C@@]34C[C@@H](CC[C@@H]13)[C@](C)(O)C4)C(C)(C)[C@@H](O)[C@H]2O	> 50	
C=C1[C@@H]2CC[C@@H]3C[C@@]2(C[C@@H](O)[C@@]2(O)[C@H]1C[C@H](O)C2(C)C)C[C@@]3(C)O	> 50	
C=C1[C@@H]2CC[C@@H]3[C@@H](O)[C@@]2(C[C@@H](O)[C@@]2(O)[C@H]1C[C@H](O)C2(C)C)C[C@@]3(C)O	> 50	
C=C1[C@H]2C[C@H](O)C(C)(C)[C@]2(O)CC[C@@]23C[C@@H](CC[C@@H]12)[C@@](O)(CO)C3	> 50	
CC1=C[C@@]23C[C@@H](O)[C@@]4(O)[C@@H]([C@@H](O)[C@H](O)C4(C)C)[C@](C)(O)[C@@H]2CC[C@@H]1[C@H]3O		inhibition in vivo at 0.04 mg/kg (Mus musculus [1]): 61.9%
C=C1[C@@H]2CC[C@@H]3[C@@H](OC(=O)CC)[C@@]2(C[C@@H](O)[C@@]2(O)[C@H]1C[C@H](O)C2(C)C)C[C@@]3(C)O	> 50	
C=C1[C@@H]2CC[C@H]3C(C)=C[C@]2(C[C@@H](O)[C@@]2(O)[C@H]1C[C@H](O)C2(C)C)[C@@H]3O	> 50	
C=C1[C@@H]2[C@H](O)[C@H](O)C(C)(C)[C@@]2(O)[C@H](O)C[C@]23C[C@@](C)(O)[C@H](CC[C@@H]12)[C@H]3O	> 50	
CC1=C2C[C@H](O)C(C)(C)[C@]23O[C@]12CC[C@@H]1C[C@@]2(C[C@H]3O)C[C@@]1(C)O	> 50	
C=C1[C@@H]2[C@@H](OC)[C@H](O)C(C)(C)[C@@]2(O)[C@H](O)C[C@]23C=C(C)[C@H](CC[C@@H]12)[C@H]3O	> 50	
